We go through 3 compounds from the kinase profiling compilation of Christmann-Franck et al. (2016).

Targets include PTK6 (human) (UniProt Q13882); MAPK7 (human) (UniProt Q13164); CSF1R (human) (UniProt P07333); FRK (human) (UniProt P42685); TNK1 (human) (UniProt Q13470).
Common to all, as to assay: KINOMEscan competition binding
In a further assay the target is RPS6KA4 KD2 (human) (UniProt O75676). Conditions: compound 10.0 µM.
In a further assay the target is RPS6KA2 KD2 (human) (UniProt Q15349). Conditions: compound 10.0 µM.
The target in a further assay is CHEK1 (human) (UniProt O14757). As to conditions: compound 10.0 µM.
The next assay addresses RPS6KA6 KD2 (human) (UniProt Q9UK32). As to conditions: compound 10.0 µM.
The next assay concerns the target PRKD1 (human) (UniProt Q15139). Conditions: compound 10.0 µM.
Another assay concerns the target STK33 (human) (UniProt Q9BYT3). As to conditions: compound 10.0 µM.
Another assay concerns the target RPS6KA1 KD2 (human) (UniProt Q15418). Conditions: compound 10.0 µM.
The next assay concerns the target DCLK2 (human) (UniProt Q8N568). As to conditions: for kinase still bound, per cent of control: compound 10.0 µM.
The next assay addresses ULK2 (human) (UniProt Q8IYT8). Conditions: compound 10.0 µM.
In the next assay the target is DAPK3 (human) (UniProt O43293). Conditions: compound 10.0 µM.
The target in the next assay is TTK (human) (UniProt P33981). Conditions: compound 10.0 µM.
The target of the next assay is PLK1 (human) (UniProt P53350). As to conditions: compound 10.0 µM.
In another assay the target is GAK (human) (UniProt O14976). As to conditions: for kinase still bound, per cent of control: compound 10.0 µM.
The target of a further assay is DCLK1 (human) (UniProt O15075). Conditions: for kinase still bound, per cent of control: compound 10.0 µM.
The target of another assay is MAP2K3 (human) (UniProt P46734). As to conditions: compound 10.0 µM.
The target in a further assay is PLK3 (human) (UniProt Q9H4B4). Conditions: compound 10.0 µM.
For a further assay, the target named is RIOK2 (human) (UniProt Q9BVS4). As to conditions: compound 10.0 µM.
The target of a further assay is PRKD2 (human) (UniProt Q9BZL6). As to conditions: compound 10.0 µM.
The next assay concerns the target TSSK1B (human) (UniProt Q9BXA7). As to conditions: compound 10.0 µM.
Assay [1] concerns EIF2AK4 KD2 (human), Q9P2K8 [S808G]. As to conditions: compound 10.0 µM.
Another assay deals with NUAK1 (human) (UniProt O60285). Conditions: compound 10.0 µM.
A further assay concerns the target RIPK2 (human) (UniProt O43353). Conditions: compound 10.0 µM.
The next assay addresses ROS1 (human) (UniProt P08922). Conditions: compound 10.0 µM.
A further assay has as its target MKNK2 (human) (UniProt Q9HBH9). Conditions: compound 10.0 µM.
The target in a further assay is PDGFRB (human) (UniProt P09619). As to conditions: compound 10.0 µM.
A further assay has as its target MYLK4 (human) (UniProt Q86YV6). As to conditions: compound 10.0 µM.
Assay [2] deals with ABL1 (human), P00519 [F317L]. Conditions: compound 10.0 µM.
For assay [3], the system named is KIT (human), P10721 [V559D]. Conditions: compound 10.0 µM.
Another assay concerns the target CAMKK1 (human) (UniProt Q8N5S9). Conditions: compound 10.0 µM.
The next assay deals with KIT (human) (UniProt P10721). As to conditions: compound 10.0 µM.
Another assay concerns the target TNK2 (human) (UniProt Q07912). Conditions: compound 10.0 µM.
The next assay has as its target FGFR4 (human) (UniProt P22455). Conditions: compound 10.0 µM.
In another assay the target is SGK110 (human) (UniProt P0C264). As to conditions: compound 10.0 µM.
The subject of assay [4] is ABL1 (human), P00519 [F317I]. As to conditions: compound 10.0 µM.
In a further assay the target is PLK4 (human) (UniProt O00444). As to conditions: compound 10.0 µM.
Another assay has as its target PRKD3 (human) (UniProt O94806). As to conditions: compound 10.0 µM.
The target in a further assay is SRMS (human) (UniProt Q9H3Y6). As to conditions: compound 10.0 µM.
The target of another assay is DAPK2 (human) (UniProt Q9UIK4). As to conditions: compound 10.0 µM.
A further assay deals with PIM2 (human) (UniProt Q9P1W9). As to conditions: compound 10.0 µM.
In the next assay the target is PIK3CG (human) (UniProt P48736). As to conditions: compound 10.0 µM.
For a further assay, the target named is ULK3 (human) (UniProt Q6PHR2). Conditions: compound 10.0 µM.
For a further assay, the target named is PIM3 (human) (UniProt Q86V86). Conditions: compound 10.0 µM.
The target of another assay is CSNK2A2 (human) (UniProt P19784). Conditions: compound 10.0 µM.
Another assay has as its target MINK1 (human) (UniProt Q8N4C8). Conditions: compound 10.0 µM.
Assay [5] concerns PIK3CA (human), P42336 [E545K]. Conditions: compound 10.0 µM.
Another assay concerns the target HIPK1 (human) (UniProt Q86Z02). As to conditions: compound 10.0 µM.
The target in a further assay is PIM1 (human) (UniProt P11309). As to conditions: compound 10.0 µM.

DCLK2 (human), sequence (Q8N568 whole entry, looked up): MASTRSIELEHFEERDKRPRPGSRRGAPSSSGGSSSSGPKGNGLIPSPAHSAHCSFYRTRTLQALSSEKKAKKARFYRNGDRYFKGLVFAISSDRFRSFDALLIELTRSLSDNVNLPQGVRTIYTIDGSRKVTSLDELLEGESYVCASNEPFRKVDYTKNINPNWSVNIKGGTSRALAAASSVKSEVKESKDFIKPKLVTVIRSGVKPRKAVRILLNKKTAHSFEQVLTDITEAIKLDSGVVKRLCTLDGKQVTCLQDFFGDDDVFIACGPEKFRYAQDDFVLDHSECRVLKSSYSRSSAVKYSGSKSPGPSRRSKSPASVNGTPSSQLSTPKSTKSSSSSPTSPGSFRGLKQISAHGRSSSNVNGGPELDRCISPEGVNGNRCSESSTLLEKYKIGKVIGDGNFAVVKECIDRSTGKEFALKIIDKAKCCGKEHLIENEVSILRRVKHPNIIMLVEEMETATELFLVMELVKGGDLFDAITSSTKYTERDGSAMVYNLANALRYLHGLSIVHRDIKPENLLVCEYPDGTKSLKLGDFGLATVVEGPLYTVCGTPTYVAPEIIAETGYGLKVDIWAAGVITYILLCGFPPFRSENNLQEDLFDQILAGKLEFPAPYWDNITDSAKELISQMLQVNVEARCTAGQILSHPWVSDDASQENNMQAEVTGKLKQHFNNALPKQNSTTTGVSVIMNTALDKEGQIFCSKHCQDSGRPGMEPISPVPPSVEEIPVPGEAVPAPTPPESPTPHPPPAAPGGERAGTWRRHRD
GAK (human), sequence (O14976 whole entry, looked up): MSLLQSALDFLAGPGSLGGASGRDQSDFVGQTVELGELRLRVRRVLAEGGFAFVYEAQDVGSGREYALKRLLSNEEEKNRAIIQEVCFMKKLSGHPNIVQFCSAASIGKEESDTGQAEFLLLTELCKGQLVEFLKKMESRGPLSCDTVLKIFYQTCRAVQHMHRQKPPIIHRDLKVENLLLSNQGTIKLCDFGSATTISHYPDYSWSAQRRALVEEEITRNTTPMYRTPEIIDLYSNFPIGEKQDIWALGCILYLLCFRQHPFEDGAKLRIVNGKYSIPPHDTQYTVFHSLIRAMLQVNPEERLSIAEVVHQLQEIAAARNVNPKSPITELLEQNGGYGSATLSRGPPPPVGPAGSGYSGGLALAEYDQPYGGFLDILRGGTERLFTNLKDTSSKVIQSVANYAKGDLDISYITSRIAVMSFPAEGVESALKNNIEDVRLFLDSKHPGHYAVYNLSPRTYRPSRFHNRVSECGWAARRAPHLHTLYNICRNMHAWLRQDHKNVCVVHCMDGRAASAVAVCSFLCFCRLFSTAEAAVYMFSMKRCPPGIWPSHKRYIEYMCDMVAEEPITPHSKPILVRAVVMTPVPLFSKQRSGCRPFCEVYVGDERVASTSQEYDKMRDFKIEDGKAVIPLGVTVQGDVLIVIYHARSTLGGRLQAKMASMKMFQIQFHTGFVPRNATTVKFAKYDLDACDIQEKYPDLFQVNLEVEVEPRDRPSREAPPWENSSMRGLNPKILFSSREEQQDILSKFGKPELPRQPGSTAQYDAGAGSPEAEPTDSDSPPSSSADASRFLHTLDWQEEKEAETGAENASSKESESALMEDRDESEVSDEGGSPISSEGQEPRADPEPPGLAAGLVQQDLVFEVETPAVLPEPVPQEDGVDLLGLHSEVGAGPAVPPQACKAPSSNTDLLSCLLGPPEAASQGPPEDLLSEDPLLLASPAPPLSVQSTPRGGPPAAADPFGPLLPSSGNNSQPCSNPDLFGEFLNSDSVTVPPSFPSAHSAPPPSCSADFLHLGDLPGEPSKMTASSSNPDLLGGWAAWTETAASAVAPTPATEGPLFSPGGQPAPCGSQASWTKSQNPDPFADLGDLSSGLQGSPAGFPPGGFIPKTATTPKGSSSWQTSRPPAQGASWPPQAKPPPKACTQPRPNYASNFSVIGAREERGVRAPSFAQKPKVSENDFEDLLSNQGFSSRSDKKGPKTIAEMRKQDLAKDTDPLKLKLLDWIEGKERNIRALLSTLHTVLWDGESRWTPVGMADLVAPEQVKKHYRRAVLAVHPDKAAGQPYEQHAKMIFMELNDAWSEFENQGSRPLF
DCLK1 (human), sequence (O15075 whole entry, looked up): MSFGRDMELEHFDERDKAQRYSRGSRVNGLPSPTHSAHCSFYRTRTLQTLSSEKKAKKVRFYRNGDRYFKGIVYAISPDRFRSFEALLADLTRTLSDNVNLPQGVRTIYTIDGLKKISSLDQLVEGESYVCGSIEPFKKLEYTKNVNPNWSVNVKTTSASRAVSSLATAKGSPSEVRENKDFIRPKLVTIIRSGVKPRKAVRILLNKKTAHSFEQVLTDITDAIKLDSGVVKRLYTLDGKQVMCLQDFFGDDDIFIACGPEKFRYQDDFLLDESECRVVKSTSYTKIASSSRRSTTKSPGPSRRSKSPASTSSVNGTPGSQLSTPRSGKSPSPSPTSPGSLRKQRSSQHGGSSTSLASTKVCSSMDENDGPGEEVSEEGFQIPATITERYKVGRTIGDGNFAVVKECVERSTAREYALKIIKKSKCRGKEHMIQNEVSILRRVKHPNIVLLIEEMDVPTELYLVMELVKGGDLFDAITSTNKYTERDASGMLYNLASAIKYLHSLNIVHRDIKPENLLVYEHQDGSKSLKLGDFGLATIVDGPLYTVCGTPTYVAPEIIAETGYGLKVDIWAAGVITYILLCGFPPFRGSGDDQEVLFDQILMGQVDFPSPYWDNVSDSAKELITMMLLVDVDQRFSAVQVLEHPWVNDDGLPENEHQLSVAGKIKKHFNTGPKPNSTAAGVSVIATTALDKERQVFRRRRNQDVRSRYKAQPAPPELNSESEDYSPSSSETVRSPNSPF
RPS6KA1 KD2 (human), sequence (Q15418 whole entry, looked up): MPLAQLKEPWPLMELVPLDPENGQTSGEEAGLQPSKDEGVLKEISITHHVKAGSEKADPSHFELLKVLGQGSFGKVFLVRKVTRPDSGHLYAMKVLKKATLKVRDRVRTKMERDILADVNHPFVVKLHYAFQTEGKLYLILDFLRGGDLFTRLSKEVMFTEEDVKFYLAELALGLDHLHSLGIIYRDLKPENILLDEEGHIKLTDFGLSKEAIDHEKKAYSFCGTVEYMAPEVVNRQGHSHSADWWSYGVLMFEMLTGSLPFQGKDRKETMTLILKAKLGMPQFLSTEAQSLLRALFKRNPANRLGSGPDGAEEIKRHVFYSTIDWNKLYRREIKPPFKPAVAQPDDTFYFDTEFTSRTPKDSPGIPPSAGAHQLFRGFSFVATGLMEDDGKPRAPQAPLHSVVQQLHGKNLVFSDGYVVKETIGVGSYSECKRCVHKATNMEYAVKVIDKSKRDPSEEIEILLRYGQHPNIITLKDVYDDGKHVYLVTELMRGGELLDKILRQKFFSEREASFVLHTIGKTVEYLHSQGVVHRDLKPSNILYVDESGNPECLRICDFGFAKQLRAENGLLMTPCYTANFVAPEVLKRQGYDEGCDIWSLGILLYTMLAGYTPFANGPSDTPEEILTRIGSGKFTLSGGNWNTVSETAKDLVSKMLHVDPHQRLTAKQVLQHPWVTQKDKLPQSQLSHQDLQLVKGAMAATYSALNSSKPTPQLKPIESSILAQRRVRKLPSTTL
RPS6KA6 KD2 (human), sequence (Q9UK32 whole entry, looked up): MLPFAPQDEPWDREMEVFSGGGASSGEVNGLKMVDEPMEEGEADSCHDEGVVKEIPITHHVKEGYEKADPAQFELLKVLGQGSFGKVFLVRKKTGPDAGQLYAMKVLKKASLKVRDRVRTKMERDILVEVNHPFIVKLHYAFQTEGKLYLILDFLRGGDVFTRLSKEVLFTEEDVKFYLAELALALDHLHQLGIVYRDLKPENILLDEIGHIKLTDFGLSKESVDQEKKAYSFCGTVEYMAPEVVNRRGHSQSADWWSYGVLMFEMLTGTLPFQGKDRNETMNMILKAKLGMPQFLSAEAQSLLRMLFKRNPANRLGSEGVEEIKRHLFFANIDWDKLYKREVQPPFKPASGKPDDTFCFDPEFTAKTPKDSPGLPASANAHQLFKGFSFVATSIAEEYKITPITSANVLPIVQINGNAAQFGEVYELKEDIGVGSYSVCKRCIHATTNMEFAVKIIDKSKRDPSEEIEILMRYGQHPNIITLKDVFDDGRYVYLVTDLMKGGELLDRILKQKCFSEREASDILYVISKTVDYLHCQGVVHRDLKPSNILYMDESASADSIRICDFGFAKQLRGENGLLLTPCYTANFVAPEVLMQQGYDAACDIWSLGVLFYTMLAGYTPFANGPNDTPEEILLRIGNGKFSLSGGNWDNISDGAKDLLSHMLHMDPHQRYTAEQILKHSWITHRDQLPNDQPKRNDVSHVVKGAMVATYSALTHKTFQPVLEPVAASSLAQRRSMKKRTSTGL
TNK1 (human), sequence (Q13470 whole entry, looked up): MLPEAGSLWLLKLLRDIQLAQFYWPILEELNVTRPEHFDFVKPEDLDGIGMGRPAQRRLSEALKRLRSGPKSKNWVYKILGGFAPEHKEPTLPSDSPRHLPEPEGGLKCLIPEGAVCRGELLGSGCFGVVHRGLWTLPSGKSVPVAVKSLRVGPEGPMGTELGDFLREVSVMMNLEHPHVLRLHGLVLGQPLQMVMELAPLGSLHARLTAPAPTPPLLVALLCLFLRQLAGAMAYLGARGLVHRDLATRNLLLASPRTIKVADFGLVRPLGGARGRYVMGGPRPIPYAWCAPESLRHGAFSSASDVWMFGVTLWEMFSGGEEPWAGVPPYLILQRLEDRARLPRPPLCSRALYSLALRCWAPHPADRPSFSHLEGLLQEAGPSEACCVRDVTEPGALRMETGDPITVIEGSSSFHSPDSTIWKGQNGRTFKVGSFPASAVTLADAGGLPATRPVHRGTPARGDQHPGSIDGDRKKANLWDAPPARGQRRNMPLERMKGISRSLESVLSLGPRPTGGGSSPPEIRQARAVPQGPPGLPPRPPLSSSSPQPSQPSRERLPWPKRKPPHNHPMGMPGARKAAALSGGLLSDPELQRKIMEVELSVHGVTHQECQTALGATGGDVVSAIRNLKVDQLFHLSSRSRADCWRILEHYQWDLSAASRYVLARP

In the case of `COc1cc(N2CCN(C)CC2)ccc1Nc1ncc2c(n1)N1CCC[C@H]1CC(=O)N2C`, the kinase still bound, per cent of control turned out to be 33% at RPS6KA4 KD2 (human); 9.4% on RPS6KA2 KD2 (human); 16% at CHEK1 (human); 8.6% on RPS6KA6 KD2 (human); 15% on PRKD1 (human); 5% at STK33 (human). Besides, the kinase still bound, per cent of control is 28% on RPS6KA1 KD2 (human); 3.6% at DCLK2 (human); 19% on ULK2 (human); 28% at DAPK3 (human); 2.6% on TTK (human); 2.4% on PLK1 (human). Also, the kinase still bound, per cent of control is 6.2% on GAK (human); 0.75% at DCLK1 (human); 0.4% at MAP2K3 (human); 3.6% on PLK3 (human); 0.2% at RIOK2 (human); 2.6% on PRKD2 (human). Further, the kinase still bound, per cent of control at TSSK1B (human) was 23%; in assay [1], 18%.

For the compound `COc1cc(N2CCN(C)CC2)ccc1Nc1ncc2c(n1)N(C)c1ccccc1C(=O)N2`, the Kd (commonly the concentration at which binding is half-saturated) at PTK6 (human) is 37 nM; on DCLK2 (human), 690 nM; at MAPK7 (human), 670 nM; at GAK (human) it was 270 nM; at DCLK1 (human) it was 280 nM; on CSF1R (human), 330 nM. The dissociation constant (Kd) at FRK (human) was 96 nM; at TNK1 (human) it was 110 nM. Also, the kinase still bound, per cent of control on PTK6 (human) (compound 10.0 µM) was 0.15%; on NUAK1 (human), 29%; on RIPK2 (human), 24%; at ROS1 (human), 17%; on RPS6KA6 KD2 (human), 14%; on PRKD1 (human), 21%. The kinase still bound, per cent of control on RPS6KA1 KD2 (human) came to 21%; on MKNK2 (human) it was 27%; on PDGFRB (human), 29%; on DCLK2 (human), 1.4%; at MYLK4 (human), 2.2%; in [2] it was 8%. Besides, the kinase still bound, per cent of control in assay [3] turned out to be 22%; on MAPK7 (human) (compound 10.0 µM) it was 0.5%; at CAMKK1 (human), 28%; on KIT (human), 12%; on TNK2 (human), 0.3%; on GAK (human), 3.8%. Moreover, the kinase still bound, per cent of control on DCLK1 (human) worked out at 0.9%; on CSF1R (human) (compound 10.0 µM), 1%; on FGFR4 (human) it was 34%; on SGK110 (human) it was 31%; in assay [4] it was 3.9%; on FRK (human) (compound 10.0 µM), 0.8%. The kinase still bound, per cent of control amounted to 8.2% on PLK4 (human); 22% at PRKD2 (human); 32% on PRKD3 (human); 2.4% on TNK1 (human) (compound 10.0 µM); 18% at SRMS (human).

With `NS(=O)(=O)c1ccc(-c2cccc(/C=C3\SC(=O)NC3=O)c2)cc1`, the kinase still bound, per cent of control on DAPK2 (human) amounted to 26%; at PIM2 (human) it was 1.4%; on PIK3CG (human) it was 10%; at ULK3 (human) it was 18%; on PIM3 (human) it was 5.1%; on CSNK2A2 (human), 4.2%. Besides, the kinase still bound, per cent of control on MINK1 (human) stood at 30%; in assay [5], 16%; on HIPK1 (human), 2.2%; at PIM1 (human), 4.2%.
